Article PMC5029629, “β-casein nanovehicles for oral delivery of chemotherapeutic drug combinations overcoming P-glycoprotein-mediated multidrug resistance in human gastric cancer cells” (Oncotarget, 2016)

Biological target: T1, β-casein (β-CN) (Bos taurus, UniProt P02666)
T1 construct: gene CSN2
T1 sequence (P02666 16-224): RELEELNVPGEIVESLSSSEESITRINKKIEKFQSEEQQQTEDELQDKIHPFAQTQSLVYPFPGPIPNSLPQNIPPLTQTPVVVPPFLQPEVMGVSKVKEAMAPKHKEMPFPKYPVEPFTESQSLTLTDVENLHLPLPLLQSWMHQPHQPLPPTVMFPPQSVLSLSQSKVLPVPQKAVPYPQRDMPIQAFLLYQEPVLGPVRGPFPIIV
Test: Trp143 fluorescence quenching, modified Stern-Volmer fit (combined static and dynamic)
Type: binding
Details: PBS pH 7.0, 0.1 M ionic strength, 2.5% DMSO, 23 °C, 1 mg/ml protein (micelles); KSV called association constant but also defined as Stern-Volmer overall quenching constant; ligand poorly soluble
Excerpt: Trp143 fluorescence quenching, modified Stern-Volmer fit (combined static and dynamic) on β-casein (β-CN)

Q: Which “KSV ± SE (10^4 M^-1)” value does the source give for `CC(=O)O[C@H]1C(=O)[C@@]2(C)[C@H]([C@H](OC(=O)c3ccccc3)[C@]3(O)C[C@H](OC(=O)[C@H](O)[C@@H](NC(=O)c4ccccc4)c4ccccc4)C(C)=C1C3(C)C)[C@]1(OC(C)=O)CO[C@@H]1C[C@@H]2O` [Paclitaxel] here?
A: Its value is 0.96 ± 0.07 10^4 M^-1.

Q: With `COc1cc2c(cc1OC)CN(CCc1ccc(NC(=O)c3cc(OC)c(OC)cc3NC(=O)c3cnc4ccccc4c3)cc1)CC2` [Tariquidar] as the molecule, how does the “KSV ± SE (10^4 M^-1)” value read?
A: Its value is 1.80 ± 0.16 10^4 M^-1.
